Reference: US8598355B2, “Amide compound” (Astellas Pharma Inc., priority 2008, dated 2013)

Assays:
rat EP4 receptor [1] = molecular target: T1, rat EP4 receptor (Rattus norvegicus, UniProt P43114); test: Evaluation test of rat EP4 receptor affinity ([3H]PGE2 binding, membrane fraction of HEK293 cells expressing rat EP4); parameters: expressed in transfected cells; host or cells: HEK293 cells, transient transfection with Lipofectamine 2000; membrane fraction; conditions: [3H]PGE2 0.3 nM
Experimental: Evaluation Test of Rat EP4 Receptor Affinity
Cell Culturing and Transfection
Using a 10 cm collagen-coated dish (Asahi Glass), HEK293 cells were cultured in D-MEM culture medium, the culture medium was removed at a confluence (90 to 100% density state) and washed with a phosphate buffer saline (PBS), and then the cells were detached with N,N,N′,N′-tetrakis(carboxymethyl)ethylenediamine (EDTA). The number of the cells were counted and seeded on a 15 cm collagen-coated dish to a confluence of 70%. On the next day, to an Opti-MEM culture medium at 1.2 mL/dish was added Lipofectamine 2000 (Invitrogen) at 60 μL/dish, followed by leaving to stand at room temperature for 5 minutes. A plasmid in which rat EP4 (Sequence Number 1) had been inserted into a TA cloning site of pcDNA3.1-V5-His-topo was added thereto at 15 μg/dish. After leaving to stand at room temperature for 30 minutes, the resultant was added to the dish and cultured for 20 to 24 hours. The cell culture was carried out in a CO2 incubator (37° C., 5% CO2).
Preparation of Membrane Fraction
The culture medium was removed by suction, 10 mL of cooled PBS was added thereto per 15 cm dish, and the cells were scraped using a cell scraper (Sumitomo Bakelite). They were washed with cooled PBS (1,200 rpm, 4° C., 5 min), and then suspended in 6 mL of cooled 20 mM Tris-HCl (pH 7.4; Nakalai Tesque Inc., including 5 mM EDTA (Nakalai Tesque Inc.) per dish and the resultant was homogenized using a Polytron and the homogenate was centrifuged (26,000 rpm, 20 min, 4° C.). The obtained precipitate was resuspended in cooled 20 mM Tris-HCl and homogenized again using a Polytron, and the homogenate was centrifuged (26,000 rpm, 20 min, 4° C.). The obtained precipitate was resuspended in 50 mM HEPES (pH 7.5; Dojindo Laboratories) at 1 mL per dish, homogenized using a Polytron, and freeze-stored at −80° C. as a membrane fraction. At this time, a part thereof was used for the measurement of the protein concentration. Measurement of the protein concentration was carried out in duplicate using a Bio-Rad Protein assay kit (Bio-Rad Laboratories) in accordance with the appended standard Protocol.
[^3H]PGE2 50 μL (final concentration 0.3 nM; Perkin Elmer), 100 μL (20 μg/well) of a membrane fraction prepared from the rat EP4 expression cell and 50 μL of a test compound were mixed in a 96-well microplate (Sumitomo Bakelite), incubated at room temperature for 1 hour, filtered by suction on a UniFilter-96 GF/B (Perkin Elmer) using a FilterMate Harvester (Perkin Elmer), and then washed three times with 300 μL/well of a cooled assay buffer. Dilution of [^3H]PGE2 and the membrane fraction was carried out using an assay buffer (50 mM HEPES, 10 mM MgCl2), and dilution of the test compound and the unlabeled PGE2 was carried out using DMSO and an assay buffer. Further, in the case of the addition of a human serum albumin (HSA), dilution was carried out using an assay buffer containing 4% HSA (final concentration 1%; Sigma). The UniFilter-96 GF/B was treated preliminarily by washing twice with 200 μL/well of a cooled assay buffer. The UniFilter-96 GF/B after filtration was dried in a dryer overnight, 50 μL/well of MicroScint20 (Perkin Elmer) was added thereto, and then the radioactivity was measured using a TopCount (Perkin Elmer). For measurement of the non-specific binding, an unlabeled PGE2 (final concentration 1 μM; Cayman) was added. All of the measurements were carried out in duplicate, and the specific binding amount was determined by subtracting the non-specific binding amount from the total binding amount. The Ki value was calculated according to the general methods.
In the connection, Ex represents the below-described Example Compound number.

rat EP4 receptor [2] = molecular target: T1, rat EP4 receptor; test: In vivo rat EP4 receptor antagonistic activity (ONO-4819/LPS, plasma TNF-α); conditions: SD rat, oral
Experimental: Evaluation Test of In Vivo Rat EP4 Receptor Antagonistic Activity
A solution of PEG 400:20% Tween 80:aqueous 1 M NaHCO3 solution=1:4:5 of a test compound was orally administered to a SD rat (male, 6-week old) under non-fasting conditions, and after 1 hour, ONO-4819 was administered subcutaneously to the back of the rat. After 30 minutes, Lipopolysaccharide (LPS, 0.01 mg/kg) was administered to the tail vein without anesthesia, and after 60 minutes, 0.5 mL of heparin blood was collected from the fundus under ether anesthesia. The blood sample was centrifuged (3000 rpm, 10 minutes) to separate the plasma, and then the TNF-α concentration in the rat plasma was measured by an ELISA kit (see Hepatology Research Journal, vol. 21, 252-260, 2001). A value obtained by subtracting the TNF-α concentration of the group treated with ONO-4819 from the TNF-α concentration of the group not treated with ONO-4819 was taken as 100%, and the inhibitory rates to the value were calculated for the test compounds.
In this connection, Ex represents the below-described Example compound number.

T1 sequence (P43114 whole entry): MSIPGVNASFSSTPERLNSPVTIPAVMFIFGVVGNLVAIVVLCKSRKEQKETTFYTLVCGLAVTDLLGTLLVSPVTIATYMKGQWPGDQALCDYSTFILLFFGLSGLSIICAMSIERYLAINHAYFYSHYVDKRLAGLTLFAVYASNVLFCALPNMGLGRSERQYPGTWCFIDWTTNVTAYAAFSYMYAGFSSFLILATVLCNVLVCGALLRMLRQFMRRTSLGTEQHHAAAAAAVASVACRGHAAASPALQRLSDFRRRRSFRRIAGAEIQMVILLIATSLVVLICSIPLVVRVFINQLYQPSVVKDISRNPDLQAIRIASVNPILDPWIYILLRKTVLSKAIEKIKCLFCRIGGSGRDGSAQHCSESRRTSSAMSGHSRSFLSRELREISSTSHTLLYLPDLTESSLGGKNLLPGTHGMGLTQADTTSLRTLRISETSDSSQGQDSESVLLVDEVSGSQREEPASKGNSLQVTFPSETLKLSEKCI

Compound	Ki (rat EP4 receptor [1]) [nM]	also measured
C[C@H](NC(=O)c1cccc2ccn(Cc3ccc(-c4ccccc4)nc3)c12)c1ccc(C(=O)O)cc1 [Example 4, 4-{(1S)-1-[({1-[(6-phenylpyridin-3-yl)methyl]-1H-indol-7-yl}carbonyl)amino]ethyl}benzoic acid]	0.82	–
C[C@H](NC(=O)c1cccc2ccn(Cc3ccc(Cl)cc3)c12)c1ccc(C(=O)NS(=O)(=O)CCCO)cc1 [Example 6, 1-(4-chlorobenzyl)-N-[(1S)-1-(4-{[(3-hydroxypropyl)sulfonyl]carbamoyl}phenyl)ethyl]-1H-indole-7-carboxamide]	31	–
CN(NC(=O)c1cccc2ccn(CCOc3ccc(Cl)cc3)c12)c1ccc(C(=O)O)cc1 [Example 23]	0.35	Inhibitory rate (%) (rat EP4 receptor [2]; dose 0.01 mg/kg): 51%
O=C(NC[C@H]1CC[C@H](C(=O)O)CC1)c1cccc2ccn(Cc3ccc(Cl)cc3)c12 [Example 32]	12	–
O=C(NC[C@H]1CC[C@H](C(=O)O)CC1)c1cc(Cl)cc2ccn(Cc3ccc(Cl)cc3)c12 [Example 52]	1.8	–
O=C(NC[C@H]1CC[C@H](C(=O)O)CC1)c1cc(C(F)(F)F)cc2ccn(Cc3ccc(Cl)cc3)c12 [Example 69]	1.4	–
C[C@H](NC(=O)c1cccc2ccn(Cc3ccc(-c4ccccc4)cn3)c12)c1ccc(C(=O)O)cc1 [Example 115]	1	Inhibitory rate (%) (rat EP4 receptor [2]; dose 0.03 mg/kg): 60%
C[C@H](NC(=O)c1cccc2ccn(Cc3ccc(N4CCCCC4)nc3)c12)c1ccc(C(=O)O)cc1 [Example 132]	2.6	–
O=C(NC[C@H]1CC[C@@H](C(=O)O)CC1)c1cccc2ccn(Cc3ccc(Cl)cc3)c12 [Example 137]	9.1	–
C[C@H](NC(=O)c1cccc2ccn(Cc3coc(-c4ccccc4)n3)c12)c1ccc(C(=O)O)cc1 [Example 140]	0.61	–
O=C(O)c1ccc(CNC(=O)c2cc(Cl)cc3ccn(Cc4cc5ccccc5cn4)c23)cc1 [Example 143]	1	Inhibitory rate (%) (rat EP4 receptor [2]; dose 0.03 mg/kg): 70%
O=C(NC[C@H]1CC[C@H](C(=O)O)CC1)c1cc(Cl)cc2ccn(Cc3cc4ccccc4cn3)c12 [Example 146]	1.8	Inhibitory rate (%) (rat EP4 receptor [2]; dose 0.01 mg/kg): 88%
O=C(NC[C@H]1CC[C@H](C(=O)O)CC1)c1cc(C(F)(F)F)cc2ccn(Cc3cc4ccccc4cn3)c12 [Example 159]	2.1	Inhibitory rate (%) (rat EP4 receptor [2]; dose 0.03 mg/kg): 68%
C[C@H](NC(=O)c1cccc2ccn(CCOC3CCCCC3)c12)c1ccc(C(=O)O)cc1 [Example 164]	6.3	–
O=C(O)c1ccc(CNC(=O)c2cccc3ccn(Cc4cc5ccccc5o4)c23)cc1 [Example 187]	0.75	Inhibitory rate (%) (rat EP4 receptor [2]; dose 0.03 mg/kg): 58%
O=C(NC[C@H]1CC[C@H](C(=O)O)CC1)c1cccc2ccn(Cc3cc4ccccc4o3)c12 [Example 188]	1.2	Inhibitory rate (%) (rat EP4 receptor [2]; dose 0.01 mg/kg): 88%
O=C(NC[C@H]1CC[C@H](C(=O)O)CC1)c1cccc2ccn(Cc3cc4ccccc4s3)c12 [Example 206]	1.2	Inhibitory rate (%) (rat EP4 receptor [2]; dose 0.01 mg/kg): 72%
CN(NC(=O)c1cccc2ccn(Cc3csc(-c4ccccc4)n3)c12)c1ccc(C(=O)O)cc1 [Example 207]	1.1	Inhibitory rate (%) (rat EP4 receptor [2]; dose 0.03 mg/kg): 83%

Compound	Ki (rat EP4 receptor [1]) [nM]	also measured
O=C(O)c1ccc(CNC(=O)c2cc(Cl)cc3ccn(Cc4csc(-c5ccccc5)n4)c23)cc1 [Example 208]	1.8	Inhibitory rate (%) (rat EP4 receptor [2]; dose 0.01 mg/kg): 35%
O=C(NC[C@H]1CC[C@H](C(=O)O)CC1)c1cc(Cl)cc2ccn(Cc3csc(-c4ccccc4)n3)c12 [Example 209]	1.9	–
O=C(NC[C@H]1CC[C@H](C(=O)O)CC1)c1cc(Cl)cc2ccn(CCOc3ccc(Cl)cc3)c12 [Example 210]	1.3	Inhibitory rate (%) (rat EP4 receptor [2]; dose 0.03 mg/kg): 67%
O=C(O)c1ccc(CNC(=O)c2cc(Cl)cc3ccn(CCOc4ccc(Cl)cc4)c23)cc1 [Example 211]	1.7	Inhibitory rate (%) (rat EP4 receptor [2]; dose 0.01 mg/kg): 43%
O=C(O)c1ccc(CNC(=O)c2cc(C(F)(F)F)cc3ccn(Cc4csc(-c5ccccc5)n4)c23)cc1 [Example 212]	2.4	Inhibitory rate (%) (rat EP4 receptor [2]; dose 0.01 mg/kg): 52%
O=C(NC[C@H]1CC[C@H](C(=O)O)CC1)c1cc(C(F)(F)F)cc2ccn(Cc3csc(-c4ccccc4)n3)c12 [Example 213]	2	Inhibitory rate (%) (rat EP4 receptor [2]; dose 0.01 mg/kg): 75%
O=C(NC[C@H]1CC[C@H](C(=O)O)CC1)c1cc(C(F)(F)F)cc2ccn(Cc3ccc(-c4ccccc4)cn3)c12 [Example 214]	2.2	Inhibitory rate (%) (rat EP4 receptor [2]; dose 0.01 mg/kg): 62%
O=C(NC[C@H]1CC[C@H](C(=O)O)CC1)c1cc(C(F)(F)F)cc2ccn(Cc3cccc(Cl)n3)c12 [Example 216]	16	–
O=C(NC[C@H]1CC[C@H](C(=O)O)CC1)c1cc(C(F)(F)F)cc2ccn(Cc3cnc4ccccc4c3)c12 [Example 217]	3	–
O=C(NC[C@H]1CC[C@H](C(=O)O)CC1)c1cc(C(F)(F)F)cc2ccn(Cc3ccc4cccnc4c3)c12 [Example 218]	2.9	–
O=C(NC[C@H]1CC[C@H](C(=O)O)CC1)c1cc(C(F)(F)F)cc2ccn(Cc3cccc4cccnc34)c12 [Example 219]	3.3	–
O=C(NC[C@H]1CC[C@H](C(=O)O)CC1)c1cc(C(F)(F)F)cc2ccn(Cc3cccc4cnccc34)c12 [Example 220]	16	–
O=C(NC[C@H]1CC[C@H](C(=O)O)CC1)c1cc(C(F)(F)F)cc2ccn(Cc3ccc4ncccc4c3)c12 [Example 222]	2.8	–
O=C(NC[C@H]1CC[C@H](C(=O)O)CC1)c1cc(C(F)(F)F)cc2ccn(Cc3ccc4ccncc4c3)c12 [Example 223]	3.5	–
O=C(NC[C@H]1CC[C@H](C(=O)O)CC1)c1cc(F)cc2ccn(Cc3cc4ccccc4cn3)c12 [Example 225]	2.1	Inhibitory rate (%) (rat EP4 receptor [2]; dose 0.003 mg/kg): 77%
O=C(NC[C@H]1CC[C@H](C(=O)O)CC1)c1c(F)ccc2ccn(Cc3cc4ccccc4cn3)c12 [Example 226]	2.8	–
O=C(NC[C@H]1CC[C@H](C(=O)O)CC1)c1cc(Cl)cc2ccn(Cc3cc4ccccc4o3)c12 [Example 227]	1.7	melting point: 228 to 230 °C
O=C(NC[C@H]1CC[C@H](C(=O)O)CC1)c1cc(C(F)(F)F)cc2ccn(Cc3cc4ccccc4o3)c12 [Example 228]	2.1	–
